In brackets after ≈: the same amount, converted by molar mass.
These molecules were tested on Staphylococcus aureus ATCC 43300 (assay: Broth microdilution MIC/MBC). Conditions: Staphylococcus aureus ATCC 43300 (MRSA).
Format: cell-based
Source text: (§1) In vitro antimicrobial activity assays - Methodology
(§2) The examined compounds 1 - 24 were screened in vitro for antibacterial and antifungal activities using the broth microdilution method according to procedure reported earlier by our research group and European Committee on Antimicrobial Susceptibility Testing (EUCAST) and Clinical and Laboratory Standards Institute (CLSI) guidelines against a panel of reference and clinical or saprophytic strains of microorganisms, in-cluding Gram-positive bacteria, Staphylococcus aureus ATCC 43300 (Methicillin Resistant S. aureus – MRSA), Staphylococcus aureus ATCC 29213 (Methicillin Susceptible S. aureus – MSSA), Staphylococcus epidermidis ATCC 12228, Enterococcus faecalis ATCC 29212, Micro-coccus luteus ATCC 10240, Bacillus subtilis ATCC 6633 and Bacillus cereus ATCC 10876), Gram-negative bacteria (Bordetella bronchiseptica ATCC 4617, Escherichia coli ATCC 25922, Klebsiella pneumoniae ATCC 13883, Proteus mirabilis ATCC 12453, Salmonella typhimurium ATCC 14028 and Pseudomonas aeruginosa ATCC 9027) and fungi belonging to yeasts (Can-dida albicans ATCC 10231, Candida albicans ATCC 2091, Candida parapsilosis ATCC 22019, Candida glabrata ATCC 90030 and Candida krusei ATCC 14243). The microorganisms be-longing to ATCC came from American Type Culture Collection, routinely used for the evaluation of antimicrobials. […]
(§3) Samples containing examined compounds were dissolved in dimethyl sulfoxide (DMSO). […]
(§4) Subsequently, the MIC (Minimal Inhibitory Concentration) of the compounds was ex-amined by the microdilution broth method, using their two-fold dilutions in Mueller- […]
(§5) Hinton broth or (for bacteria) and RPMI 1640 broth with MOPS (for fungi) prepared in 96-well polystyrene plates. Final concentrations of the compounds ranged from 1000 to 0.488 µg/ml. Microbial suspensions were prepared in 0.85% NaCl with an optical density of 0.5 McFarland standard. Next each bacterial or fungal suspension was added per each well containing broth and various concentrations of the examined compounds. After incuba-

SMILES	MBC/MIC	MIC [µg/mL]
COc1ccc(/C=N/NC(=O)c2ccc(O)cc2O)cc1Br [Compound 10, N-[(3-bromo-4-methoxyphenyl)methylidene]-2,4-dihydroxybenzohydrazide]	16	31.2 (≈ 85.6 µM)

Each molecule was assayed on Micrococcus luteus ATCC 10240 (assay: Broth microdilution MIC/MBC). Conditions: not given.
Format: cell-based
Source text: as §1, §2, §3, §4, §5

SMILES	MBC/MIC
COc1ccc(/C=N/NC(=O)c2ccc(O)cc2O)cc1Br [Compound 10, N-[(3-bromo-4-methoxyphenyl)methylidene]-2,4-dihydroxybenzohydrazide]	> 4

Same assay, conditions: ATCC10240

SMILES	MBC [µg/mL]
COc1ccc(/C=N/NC(=O)c2ccc(O)cc2O)cc1Br [Compound 10, N-[(3-bromo-4-methoxyphenyl)methylidene]-2,4-dihydroxybenzohydrazide]	> 1000

Same assay, conditions: ATCC10240, read-out: MIC

SMILES	MIC [µg/mL]
COc1ccc(/C=N/NC(=O)c2ccc(O)cc2O)cc1Br [Compound 10, N-[(3-bromo-4-methoxyphenyl)methylidene]-2,4-dihydroxybenzohydrazide]	250 (≈ 685 µM)

The molecules below were run on Salmonella typhimurium ATCC 14028 (assay: Broth microdilution MIC/MBC). Conditions: Salmonella enterica.
Format: cell-based
Source text: as §1, §2, §3, §4, §5

SMILES	MIC [µg/mL]
COc1ccc(/C=N/NC(=O)c2ccc(O)cc2O)cc1Br [Compound 10, N-[(3-bromo-4-methoxyphenyl)methylidene]-2,4-dihydroxybenzohydrazide]	> 1000

What follows are molecules tested on Staphylococcus epidermidis ATCC 12228 (assay: Broth microdilution MIC/MBC). Conditions: not given.
Format: cell-based
Source text: as §1, §2, §3, §4, §5

SMILES	MBC/MIC
COc1ccc(/C=N/NC(=O)c2ccc(O)cc2O)cc1Br [Compound 10, N-[(3-bromo-4-methoxyphenyl)methylidene]-2,4-dihydroxybenzohydrazide]	> 1

Same assay, conditions: ATCC12228

SMILES	MBC [µg/mL]
COc1ccc(/C=N/NC(=O)c2ccc(O)cc2O)cc1Br [Compound 10, N-[(3-bromo-4-methoxyphenyl)methylidene]-2,4-dihydroxybenzohydrazide]	1000 (≈ 2740 µM)

Same assay, conditions: ATCC12228, read-out: MIC

SMILES	MIC [µg/mL]
COc1ccc(/C=N/NC(=O)c2ccc(O)cc2O)cc1Br [Compound 10, N-[(3-bromo-4-methoxyphenyl)methylidene]-2,4-dihydroxybenzohydrazide]	1000 (≈ 2740 µM)

Each molecule was assayed on Pseudomonas aeruginosa ATCC 9027 (assay: Broth microdilution MIC/MBC). Conditions: ATCC9027.
Format: cell-based
Source text: as §1, §2, §3, §4, §5

SMILES	MIC [µg/mL]
COc1ccc(/C=N/NC(=O)c2ccc(O)cc2O)cc1Br [Compound 10, N-[(3-bromo-4-methoxyphenyl)methylidene]-2,4-dihydroxybenzohydrazide]	> 1000

These molecules were tested on Proteus mirabilis ATCC 12453 (assay: Broth microdilution MIC/MBC). Conditions: ATCC12453.
Format: cell-based
Source text: as §1, §2, §3, §4, §5

SMILES	MIC [µg/mL]
COc1ccc(/C=N/NC(=O)c2ccc(O)cc2O)cc1Br [Compound 10, N-[(3-bromo-4-methoxyphenyl)methylidene]-2,4-dihydroxybenzohydrazide]	> 1000

Each molecule was assayed on Staphylococcus aureus ATCC 29213 (assay: Broth microdilution MIC/MBC). Conditions: not given.
Format: cell-based
Source text: as §1, §2, §3, §4, §5

SMILES	MBC/MIC
COc1ccc(/C=N/NC(=O)c2ccc(O)cc2O)cc1Br [Compound 10, N-[(3-bromo-4-methoxyphenyl)methylidene]-2,4-dihydroxybenzohydrazide]	16

Same assay, conditions: ATCC29213

SMILES	MBC [µg/mL]	MIC [µg/mL]
COc1ccc(/C=N/NC(=O)c2ccc(O)cc2O)cc1Br [Compound 10, N-[(3-bromo-4-methoxyphenyl)methylidene]-2,4-dihydroxybenzohydrazide]	250 (≈ 685 µM)	15.6 (≈ 42.8 µM)

Each molecule was assayed on Bacillus subtilis ATCC 6633 (assay: Broth microdilution MIC/MBC). Conditions: not given.
Format: cell-based
Source text: Detailed procedures are presented in the Supplementary Materials. […]
as §1
as §2, with “antimicrobials. All the used microbial cultures were first subcultured on nu-trient agar or Sabouraud agar at 35°C for 18-24 h or 30°C for 24-48 h for bacteria and fungi,” for “antimicrobials.”
The surface of Mueller-Hinton agar (for bacteria) and RPMI 1640 with MOPS (for fungi) were inoculated with the suspensions of bacterial or fungal species. Microbial suspensions were prepared in sterile saline with an optical density of McFarland standard scale 0.5.
Samples containing examined compounds were dissolved in dimethyl sulfoxide (DMSO).
Furthermore, bacterial and fungal suspensions were put onto Petri dishes with solid me-dia containing 2 mg/mL of the tested compounds followed incubation at 37°C for 24h and 30°C for 48h for bacteria and fungi, respectively. The inhibition of microbial growth was judged by comparison with a control culture prepared without any sample tested. Ciprof-loxacin, vancomycin, nitrofurantoin, cefuroxime, ampicillin or nystatin (Sigma) were used as a reference antibacterial or antifungal compounds, respectively.
as §4, §5

SMILES	MBC/MIC
COc1ccc(/C=N/NC(=O)c2ccc(O)cc2O)cc1Br [Compound 10, N-[(3-bromo-4-methoxyphenyl)methylidene]-2,4-dihydroxybenzohydrazide]	> 4

Same assay, conditions: ATCC6633

SMILES	MBC [µg/mL]
COc1ccc(/C=N/NC(=O)c2ccc(O)cc2O)cc1Br [Compound 10, N-[(3-bromo-4-methoxyphenyl)methylidene]-2,4-dihydroxybenzohydrazide]	> 1000

Same assay, conditions: ATCC6633, read-out: MIC

SMILES	MIC [µg/mL]
COc1ccc(/C=N/NC(=O)c2ccc(O)cc2O)cc1Br [Compound 10, N-[(3-bromo-4-methoxyphenyl)methylidene]-2,4-dihydroxybenzohydrazide]	250 (≈ 685 µM)
